The structures appear in SMILES notation. Converted amounts (≈) assume the structure as drawn.

Test systems include Bacillus cereus AS1.126; Escherichia coli AS1.349; Bacillus anthracis; Bacillus cereus; Staphylococcus aureus; Escherichia coli; Bacillus subtilis 168; Pseudomonas aeruginosa; Escherichia coli B; Listeria innocua; Micrococcus luteus; Streptococcus uberis; Enterobacter cloacae; Pasteurella multocida; Enterococcus faecalis; Leuconostoc lactis; Bacillus subtilis.
Experiment in all cases: ≥ marks a high value that may be exact or a test limit, other limits are often not marked, values filed in µg/mL are converted to µM
Experiment [1] deals with Staphylococcus aureus AS1.72.
Experiment [2] relates to Pseudomonas aeruginosa CGMCC 1.860.
Experiment [3] deals with Lactococcus lactis AS1.1690.
Experiment [4] relates to Enterococcus faecium CGMCC 1.2334.
Experiment [5] has as its system Enterococcus faecalis CGMCC 1.595.
Experiment [6] has as its system Staphylococcus aureus ATCC 29213.
Experiment [7] relates to Staphylococcus epidermidis.
For experiment [8], the system named is Staphylococcus aureus ATCC 25923.
Experiment [9] concerns Salmonella enterica subsp. enterica serovar Typhi.
Experiment [10] concerns Candida albicans ATCC 90028.
The test system of experiment [11] is Escherichia coli ATCC 25922.
Experiment [12] deals with Pseudomonas aeruginosa ATCC 27853.
The test system of experiment [13] is Candida albicans ATCC 2002.
The test system of experiment [14] is Staphylococcus aureus ATCC 2592.

The term MIC denotes the lowest concentration that inhibits growth of the organism. Low readings indicate a more susceptible organism, high ones a less susceptible organism. For `CC(C)[C@H](N)C(=O)N[C@@H](Cc1c[nH]c2ccccc12)C(=O)N[C@@H](CCCN=C(N)N)C(=O)N[C@@H](CCCN=C(N)N)C(=O)N[C@@H](Cc1c[nH]c2ccccc12)C(=O)N[C@@H](CCCN=C(N)N)C(=O)N[C@@H](CCCN=C(N)N)C(=O)N[C@@H](Cc1ccccc1)C(=O)N[C@@H](Cc1c[nH]c2ccccc12)C(=O)O` [VWRRWRRFW], the MIC in experiment [1] was determined as 12.5 µM (≈ 18.1 µg/mL); in [2] it was 6.25 µM (≈ 9.05 µg/mL); with Bacillus cereus AS1.126 it was 6.25 µM (≈ 9.05 µg/mL); against Escherichia coli AS1.349, 12.5 µM (≈ 18.1 µg/mL); in [3] it was 12.5 µM (≈ 18.1 µg/mL); in experiment [4] it was 12.5 µM (≈ 18.1 µg/mL). Also, in [5], the MIC was 12.5 µM (≈ 18.1 µg/mL).

For the molecule `CC[C@H](C)[C@H](NC(=O)[C@H](CC(C)C)NC(=O)[C@H](CCCCN)NC(=O)[C@H](CCSC)NC(=O)[C@@H](NC(=O)[C@H](C)NC(=O)[C@H](C)NC(=O)[C@H](CCCN=C(N)N)NC(=O)[C@H](CCCCN)NC(=O)[C@H](Cc1ccccc1)NC(=O)[C@H](Cc1ccccc1)NC(=O)[C@H](CC(C)C)NC(=O)[C@@H](NC(=O)[C@H](C)NC(=O)CNC(=O)[C@@H](NC(=O)[C@H](CO)NC(=O)[C@@H]1CCCN1C(=O)[C@@H](NC(=O)[C@@H](N)CO)C(C)C)C(C)C)C(C)C)C(C)C)C(=O)O` [SVPSVGAVLFFKRAAVMKLI], the MIC against Bacillus anthracis was not below 120 µM; in the experiment on Bacillus cereus it was not below 120 µM; against Staphylococcus aureus, more than 120 µM; with Escherichia coli, more than 120 µM.

For the molecule `CC[C@H](C)[C@H](NC(=O)[C@H](CCCCN)NC(=O)[C@H](CCCCN)NC(=O)[C@H](CC(C)C)NC(=O)[C@@H](NC(=O)[C@H](CCCCN)NC(=O)[C@H](CCCCN)NC(=O)[C@H](Cc1c[nH]c2ccccc12)NC(=O)[C@H](CC(N)=O)NC(=O)[C@@H](N)C(C)C)C(C)C)C(=O)N[C@H](C(=O)N[C@@H](CCCCN)C(=O)N[C@H](C(=O)N[C@@H](C)C(=O)N[C@@H](CCCCN)C(N)=O)C(C)C)[C@@H](C)CC` [VNWKKVLKKIIKVAK], the MIC with Bacillus subtilis 168 amounted to 0.7 µM (≈ 1.26 µg/mL); against Pseudomonas aeruginosa, 19 µM (≈ 34.1 µg/mL); against Escherichia coli B, 0.7 µM (≈ 1.26 µg/mL); in the experiment on Staphylococcus aureus, 15.6 µM (≈ 28 µg/mL).

For `CC[C@H](C)[C@H](NC(=O)[C@@H](NC(=O)[C@@H]1CCCN1C(=O)[C@H](C)NC(=O)[C@@H](NC(=O)[C@H](Cc1cnc[nH]1)NC(=O)[C@@H]1CCCN1C(=O)[C@H](CC(C)C)NC(=O)[C@H](CC(C)C)NC(=O)[C@H](Cc1cnc[nH]1)NC(=O)[C@H](CCCCN)NC(=O)[C@H](C)NC(=O)[C@@H](NC(=O)[C@H](CO)NC(=O)CNC(=O)[C@H](CC(C)C)NC(=O)[C@@H](NC(=O)[C@H](CO)NC(=O)[C@H](Cc1ccccc1)NC(=O)[C@H](CC(C)C)NC(=O)CN)C(C)C)C(C)C)C(C)C)[C@@H](C)CC)C(=O)N[C@@H](C)C(=O)N[C@@H](CCC(=O)O)C(=O)N[C@@H](CCCCN)C(=O)N[C@@H](CC(C)C)C(N)=O` [GLFSVLGSVAKHLLPHVAPIIAEKL], the MIC with Listeria innocua was 9.58 µM (≈ 25 µg/mL); against Micrococcus luteus, 4.6 µM (≈ 12 µg/mL); against Streptococcus uberis it was 9.58 µM (≈ 25 µg/mL); in the experiment on Enterobacter cloacae it was not below 38.3 µM; in experiment [6] it was 4.6 µM (≈ 12 µg/mL); against Pseudomonas aeruginosa, more than 38.3 µM. In addition, the MIC is 9.58 µM (≈ 25 µg/mL) with Pasteurella multocida; 4.6 µM (≈ 12 µg/mL) in experiment [7]; not below 38.3 µM in the experiment on Bacillus cereus; not below 38.3 µM against Enterococcus faecalis; 19.2 µM (≈ 50 µg/mL) in [8]; 1.15 µM (≈ 3 µg/mL) against Leuconostoc lactis. Also, the MIC against Escherichia coli was more than 38.3 µM.

As to `CC(C)C[C@H](NC(=O)[C@H](CCCCN)NC(=O)[C@H](CCCN=C(N)N)NC(=O)[C@H](Cc1ccccc1)NC(=O)[C@H](Cc1ccccc1)NC(=O)[C@H](CCCCN)NC(=O)[C@H](CCCCN)NC(=O)[C@H](Cc1ccccc1)NC(=O)[C@H](CCCN=C(N)N)NC(=O)[C@H](CCCCN)NC(=O)[C@@H](N)C(C)C)C(=O)N[C@@H](CCCCN)C(=O)N[C@@H](CCCCN)C(=O)N[C@@H](CO)C(=O)N[C@H](C(=O)N[C@@H](CCCCN)C(=O)N[C@@H](CCCCN)C(N)=O)C(C)C` [VKRFKKFFRKLKKSVKK], the MIC in [9] is 1.82 µM (≈ 4 µg/mL); in the experiment on Enterobacter cloacae, not below 58.3 µM; in [10], 29.1 µM (≈ 64 µg/mL); in the experiment on Pseudomonas aeruginosa it was 7.29 µM (≈ 16 µg/mL); against Bacillus subtilis it was 29.1 µM (≈ 64 µg/mL); in experiment [11], 3.64 µM (≈ 8 µg/mL). Further, the MIC turned out to be 0.911 µM (≈ 2 µg/mL) in experiment [8], 29.1 µM (≈ 64 µg/mL) in experiment [12], 58.3 µM (≈ 128 µg/mL) in the experiment on Staphylococcus aureus and 29.1 µM (≈ 64 µg/mL) against Escherichia coli.

With `CC(C)C[C@H](NC(=O)[C@H](CCCCN)NC(=O)[C@H](Cc1ccccc1)NC(=O)[C@H](CC(C)C)NC(=O)[C@@H](NC(=O)[C@@H]1CCCN1C(=O)[C@@H](N)CC(C)C)C(C)C)C(=O)N[C@@H](C)C(=O)N[C@@H](CO)C(=O)N[C@@H](CCCCN)C(=O)N[C@H](C(=O)N[C@@H](Cc1ccccc1)C(=O)N1CCC[C@H]1C(=O)N[C@@H](C)C(=O)N[C@H](C(=O)N[C@@H](Cc1ccccc1)C(=O)N[C@@H](CO)C(=O)N[C@@H](CO)C(=O)N[C@@H](CC(C)C)C(=O)N[C@@H](CCCCN)C(=O)O)C(C)C)C(C)C` [LPVLFKLASKVFPAVFSSLK], the MIC in the experiment with Bacillus anthracis was not below 58.4 µM; in the experiment with Bacillus cereus, 29.2 µM (≈ 64 µg/mL); with Staphylococcus aureus it was 58.4 µM (≈ 128 µg/mL); against Escherichia coli, 117 µM (≈ 256 µg/mL).

Turning to `CC(C)C[C@H](NC(=O)[C@H](CCCCN)NC(=O)[C@H](CCCN=C(N)N)NC(=O)[C@H](Cc1ccccc1)NC(=O)[C@H](Cc1ccccc1)NC(=O)[C@H](CCCCN)NC(=O)[C@H](CCCCN)NC(=O)[C@H](Cc1ccccc1)NC(=O)[C@H](CCCN=C(N)N)NC(=O)[C@H](CCCCN)NC(=O)[C@@H](N)C(C)C)C(=O)N[C@@H](CCCCN)C(=O)N[C@@H](CCCCN)C(=O)N[C@@H](CO)C(=O)N[C@H](C(N)=O)C(C)C` [VKRFKKFFRKLKKSV], the MIC is 9.67 µM (≈ 18.7 µg/mL) in experiment [13]; 1.03 µM (≈ 2 µg/mL) in experiment [9]; 4.12 µM (≈ 8 µg/mL) in the experiment with Enterobacter cloacae; not below 33 µM in [10]; 8.25 µM (≈ 16 µg/mL) in the experiment with Pseudomonas aeruginosa; not below 38.7 µM against Bacillus subtilis. Besides, the MIC in [8] was 0.516 µM (≈ 0.999 µg/mL); in experiment [12], 16.5 µM (≈ 32 µg/mL); against Staphylococcus aureus, 8.25 µM (≈ 16 µg/mL); in experiment [14], not below 51.6 µM; in the experiment with Escherichia coli, 8.25 µM (≈ 16 µg/mL).

Turning to `CC(C)C[C@H](NC(=O)[C@H](CCCCN)NC(=O)[C@H](CCCN=C(N)N)NC(=O)[C@H](Cc1ccccc1)NC(=O)[C@H](Cc1ccccc1)NC(=O)[C@H](CCCCN)NC(=O)[C@H](CCCCN)NC(=O)[C@H](Cc1ccccc1)NC(=O)[C@H](CCCN=C(N)N)NC(=O)[C@H](CCCCN)NC(=O)[C@@H](N)C(C)C)C(=O)N[C@@H](CCCCN)C(=O)N[C@@H](CCCCN)C(=O)N[C@@H](CO)C(=O)N[C@H](C(=O)N[C@@H](CCCCN)C(N)=O)C(C)C` [VKRFKKFFRKLKKSVK], the MIC was 1.93 µM (≈ 4 µg/mL) in experiment [9]; 31 µM (≈ 64 µg/mL) against Enterobacter cloacae; 31 µM (≈ 64 µg/mL) in experiment [10]; 7.74 µM (≈ 16 µg/mL) in the experiment with Pseudomonas aeruginosa; 31 µM (≈ 64 µg/mL) in the experiment on Bacillus subtilis; 1.93 µM (≈ 4 µg/mL) in experiment [11]. Moreover, the MIC in experiment [8] was found to be 0.967 µM (≈ 2 µg/mL); in experiment [12], 31 µM (≈ 64 µg/mL); against Staphylococcus aureus, 61.9 µM (≈ 128 µg/mL); in the experiment on Escherichia coli, 31 µM (≈ 64 µg/mL).

(Values after DBAASP.)
